Values of other authors, collected in US20080167327A1, “HYDRATES OF ERLOTINIB HYDROCHLORIDE” (priority 2006, published 2008).
Structures can show the parent of a compound that is named as a salt.

Key:
[1] = compared with Form B; disclosed in WO 2004/072049
[2] = compared with Form A; disclosed in WO 01/34574

SMILES: C#Cc1cccc(Nc2ncnc3cc(OCCOC)c(OCCOC)cc23)c1 [Form E, erlotinib hydrochloride]
- solubility [1]: higher solubility

SMILES: C#Cc1cccc(Nc2ncnc3cc(OCCOC)c(OCCOC)cc23)c1 [Form B, erlotinib hydrochloride]
- thermodynamic stability [2]: thermodynamically more stable than Form A
